Square brackets hold non-standard residues; d marks the D form. Peptide text beside a SMILES is read from it. Tpi = O=C(O)[C@@H]1Cc2c([nH]c3ccccc23)CN1
Columns and labels:
Assay type in all cases: functional
[1] = test system: Rattus norvegicus; assay: The reduction of thrombolytic mass by the compound was calculated at a dose of 7.4 mg/Kg
[2] = test system: Rattus norvegicus; assay: The reduction of thrombolytic mass by the compound was calculated at a dose of 7.2 mg/Kg
[3] = test system: Rattus norvegicus; assay: The reduction of thrombolytic mass by the compound was calculated at a dose of 8 mg/kg
[4] = test system: Rattus norvegicus; assay: The reduction of thrombolytic mass by the compound was calculated at a dose of 5.4 mg/Kg
[5] = test system: Rattus norvegicus; assay: The reduction of thrombolytic mass by the compound was calculated at a dose of 5.3 mg/Kg
[6] = test system: Rattus norvegicus; assay: The reduction of thrombolytic mass by the compound was calculated at a dose of 6 mg/kg

`C[C@H](NC(=O)[C@@H]1Cc2c([nH]c3ccccc23)CN1)C(=O)N[C@@H](CCCN=C(N)N)C(=O)N1CCC[C@H]1C(=O)N[C@@H](C)C(=O)N[C@@H](CCCCN)C(=O)O` (H-[Tpi]ARPAK-OH) showed an Activity [1] of 16.13 mg.

Work on `C[C@H](NC(=O)[C@@H]1CCCN1C(=O)[C@H](CCCN=C(N)N)NC(=O)CNC(=O)[C@@H]1Cc2c([nH]c3ccccc23)CN1)C(=O)N[C@@H](CCCCN)C(=O)O` (H-[Tpi]GRPAK-OH) yielded an Activity [2] of 19.7 mg.

With `C[C@H](NC(=O)[C@@H]1CCCN1C(=O)[C@H](CCCN=C(N)N)NC(=O)[C@H](CCC(N)=O)NC(=O)[C@@H]1Cc2c([nH]c3ccccc23)CN1)C(=O)N[C@@H](CCCCN)C(=O)O` (H-[Tpi]QRPAK-OH) the Activity [3] was 17.27 mg.

H-ARPAK-OH showed an Activity [4] of 18.84 mg.

Molecule H-GRPAK-OH has an Activity [5] of 25.9 mg.

With H-QRPAK-OH the Activity [6] was 21.28 mg.

Source: ChEMBL document CHEMBL1134885, “Synthesis and thrombolytic activity of pseudopeptides related to fibrinogen fragment” (2002)
